Reference: BindingDB's records for doi:10.1016/j.bmc.2014.04.022 (Tohoku Pharmaceutical University, 2014)

How the values were obtained:
[1] = Antagonist activity at estrogen receptor in human MCF7 cells assessed as inhibition of estradiol-induced cell proliferation after 5 days by WST-8 assay
[2] = Agonist activity at estrogen receptor in human MCF7 cells assessed as induction of cell proliferation after 5 days by WST-8 assay

IC50 [1]: 1060 nM | EC50 [2]: 16 nM
Compound: CN(C)CCOc1ccc(C23CC4CC(CC(c5ccc(O)cc5)(C4)C2)C3)cc1
